# From ChEMBL document CHEMBL3758169, “4-Aminoindazolyl-dihydrofuro[3,4-d]pyrimidines as non-covalent inhibitors of mutant epidermal growth factor receptor tyrosine kinase” (Bioorg Med Chem Lett, 2016)
# Key:
# [1] = molecular target: Tyrosine-protein kinase Lck (Homo sapiens) (UniProt P06239); test: Inhibition of LCK (unknown origin) at 1000 Nm
# [2] = molecular target: Mitogen-activated protein kinase 1 (Homo sapiens) (UniProt P28482); test: Inhibition of ERK2 (unknown origin) at 1000 nM
# [3] = Oral bioavailability in rat at 5 mg/kg; type: ADME, organism-based; details: in vivo
# [4] = molecular target: Serine/threonine-protein kinase Chk1 (Homo sapiens) (UniProt O14757); test: Inhibition of CHK1 (unknown origin) at 1000 nM
# Rattus norvegicus = test: Unbound AUC in rat at 5 mg/kg, po; type: ADME, organism-based; details: in vivo
# [5] = molecular target: T1, Epidermal growth factor receptor (Homo sapiens, UniProt P00533, L858R/T790M); test: Inhibition of EGFR T790M/L858R mutant autophosphorylation in human H1975 cells; type: cell-based
# T1 sequence (P00533 25-1210 T790M/L858R limits assumed): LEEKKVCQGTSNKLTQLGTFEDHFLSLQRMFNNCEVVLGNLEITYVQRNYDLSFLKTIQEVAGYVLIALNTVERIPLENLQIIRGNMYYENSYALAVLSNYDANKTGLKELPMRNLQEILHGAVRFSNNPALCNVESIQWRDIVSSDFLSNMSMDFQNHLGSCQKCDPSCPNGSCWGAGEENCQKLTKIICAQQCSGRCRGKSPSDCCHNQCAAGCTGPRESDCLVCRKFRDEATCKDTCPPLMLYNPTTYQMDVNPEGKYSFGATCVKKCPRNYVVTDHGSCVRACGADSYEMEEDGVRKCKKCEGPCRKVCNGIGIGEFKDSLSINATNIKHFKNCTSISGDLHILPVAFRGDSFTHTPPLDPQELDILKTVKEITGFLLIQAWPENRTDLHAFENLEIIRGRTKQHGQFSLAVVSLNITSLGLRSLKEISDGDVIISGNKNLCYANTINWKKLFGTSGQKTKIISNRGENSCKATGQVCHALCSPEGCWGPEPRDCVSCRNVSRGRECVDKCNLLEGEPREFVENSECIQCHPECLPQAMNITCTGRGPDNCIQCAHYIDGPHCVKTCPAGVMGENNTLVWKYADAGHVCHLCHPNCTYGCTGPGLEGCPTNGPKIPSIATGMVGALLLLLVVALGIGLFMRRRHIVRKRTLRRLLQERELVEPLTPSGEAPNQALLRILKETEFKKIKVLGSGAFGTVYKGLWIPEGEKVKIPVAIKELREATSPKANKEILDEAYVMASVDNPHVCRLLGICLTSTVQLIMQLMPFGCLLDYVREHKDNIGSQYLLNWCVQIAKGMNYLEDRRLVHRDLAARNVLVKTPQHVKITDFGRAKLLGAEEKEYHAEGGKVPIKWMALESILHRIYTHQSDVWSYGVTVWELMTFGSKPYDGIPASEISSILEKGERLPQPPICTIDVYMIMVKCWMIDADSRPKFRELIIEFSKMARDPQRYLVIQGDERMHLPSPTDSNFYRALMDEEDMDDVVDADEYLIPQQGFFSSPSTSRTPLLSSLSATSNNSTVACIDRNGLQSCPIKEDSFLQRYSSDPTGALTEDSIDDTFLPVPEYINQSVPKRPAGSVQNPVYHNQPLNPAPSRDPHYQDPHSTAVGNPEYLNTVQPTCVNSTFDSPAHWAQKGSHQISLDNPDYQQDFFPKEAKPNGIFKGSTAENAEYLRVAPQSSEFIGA
# [6] = molecular target: Aurora kinase B (Homo sapiens) (UniProt Q96GD4); test: Inhibition of Aurora B (unknown origin) at 1000 nM
# [7] = Drug excretion in iv dosed rat bile assessed as oxidative metabolite; type: ADME, organism-based; details: in vivo
# [8] = Apparent permeability from the apical to basolateral side in MDCK cells; type: ADME, cell-based, Canis lupus familiaris; details: dog
# [9] = molecular target: T2, Epidermal growth factor receptor (Homo sapiens, UniProt P00533); test: Inhibition of wild type EGFR (unknown origin)
# Target sequence in this assay (P00533 whole entry): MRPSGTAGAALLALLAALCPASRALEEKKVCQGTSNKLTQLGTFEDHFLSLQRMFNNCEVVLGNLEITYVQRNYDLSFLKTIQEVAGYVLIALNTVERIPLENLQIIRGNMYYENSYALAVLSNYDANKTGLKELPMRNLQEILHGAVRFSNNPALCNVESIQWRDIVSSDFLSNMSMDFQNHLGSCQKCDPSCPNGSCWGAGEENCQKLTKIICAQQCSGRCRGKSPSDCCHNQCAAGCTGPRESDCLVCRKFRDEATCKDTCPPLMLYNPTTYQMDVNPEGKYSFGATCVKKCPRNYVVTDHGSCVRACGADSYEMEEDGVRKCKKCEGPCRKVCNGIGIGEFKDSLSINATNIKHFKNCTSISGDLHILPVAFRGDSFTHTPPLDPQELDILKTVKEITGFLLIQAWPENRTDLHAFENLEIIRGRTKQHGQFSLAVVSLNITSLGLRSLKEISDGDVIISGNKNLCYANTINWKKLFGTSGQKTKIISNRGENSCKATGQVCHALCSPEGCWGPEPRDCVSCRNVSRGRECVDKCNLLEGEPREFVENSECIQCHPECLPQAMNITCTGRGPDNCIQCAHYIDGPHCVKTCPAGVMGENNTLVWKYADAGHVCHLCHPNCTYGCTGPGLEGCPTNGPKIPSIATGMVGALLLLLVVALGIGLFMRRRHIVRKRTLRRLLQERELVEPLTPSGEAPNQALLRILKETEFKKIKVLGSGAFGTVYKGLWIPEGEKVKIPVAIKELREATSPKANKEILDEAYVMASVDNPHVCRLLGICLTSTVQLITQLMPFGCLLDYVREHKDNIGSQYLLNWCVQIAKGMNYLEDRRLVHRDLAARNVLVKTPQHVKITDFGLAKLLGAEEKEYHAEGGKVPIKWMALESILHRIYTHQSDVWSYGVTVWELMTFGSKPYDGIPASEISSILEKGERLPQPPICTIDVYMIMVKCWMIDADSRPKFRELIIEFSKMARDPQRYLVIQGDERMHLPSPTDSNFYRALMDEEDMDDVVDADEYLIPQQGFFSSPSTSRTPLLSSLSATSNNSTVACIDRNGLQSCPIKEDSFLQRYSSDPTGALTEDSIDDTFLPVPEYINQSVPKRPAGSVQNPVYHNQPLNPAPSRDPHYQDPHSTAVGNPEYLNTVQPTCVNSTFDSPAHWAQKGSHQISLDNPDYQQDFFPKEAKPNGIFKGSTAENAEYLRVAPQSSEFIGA
# [10] = system: Epidermal growth factor receptor (Homo sapiens), P00533 [L858R,T790M]; test: Inhibition of EGFR T790M/L858R double mutant (unknown origin) at 1000 nM; type: protein assay
# [11] = molecular target: Tyrosine-protein kinase JAK2 (Homo sapiens) (UniProt O60674); test: Inhibition of JAK2 (unknown origin) at 1000 nM
# [12] = molecular target: High affinity nerve growth factor receptor (Homo sapiens) (UniProt P04629); test: Inhibition of TRKA (unknown origin) at 1000 nM
# [13] = Kinetic solubility of compound; type: physicochemical; details: read-out: Kinetic_solubility
# [14] = Plasma clearance in iv dosed rat; type: ADME, organism-based
# [15] = molecular target: Dual specificity mitogen-activated protein kinase kinase 1 (Homo sapiens) (UniProt Q02750); test: Inhibition of MEK1 (unknown origin) at 1000 nM
# [16] = system: RAF proto-oncogene serine/threonine-protein kinase (Homo sapiens), P04049 [Y340D,Y341D]; test: Inhibition of RAF1 Y340D/Y341D double mutant (unknown origin) at 1000 nM
# [17] = molecular target: T1, Epidermal growth factor receptor; test: Inhibition of EGFR T790M/L858R mutant (unknown origin); type: protein assay
# [18] = molecular target: CDK2/Cyclin A2 (Homo sapiens) (UniProt P24941+P20248); test: Inhibition of CDK2/cyclinA (unknown origin) at 1000 nM; type: protein-complex assay
# [19] = molecular target: Receptor-type tyrosine-protein kinase FLT3 (Homo sapiens) (UniProt P36888); test: Inhibition of FLT3 (unknown origin) at 1000 nM
# [20] = molecular target: Receptor tyrosine-protein kinase erbB-2 (Homo sapiens) (UniProt P04626); test: Inhibition of ERBB2 (unknown origin) at 1000 nM
# [21] = Volume of distribution at steady state in rat; type: ADME, organism-based; details: in vivo, read-out: Vdss
# [22] = molecular target: Vascular endothelial growth factor receptor 2 (Homo sapiens) (UniProt P35968); test: Inhibition of KDR (unknown origin) at 1000 nM
# [23] = Total AUC in rat at 5 mg/kg, po; type: ADME, organism-based; parameters: dose 5 mg/kg, time AUCmax, route oral; details: in vivo
# [24] = molecular target: T2, Epidermal growth factor receptor; test: Inhibition of EGFR deletion (746 to 750 residues) mutant (unknown origin); type: protein assay
# Target sequence in this assay (P00533 25-1210 limits assumed, stated change not applied): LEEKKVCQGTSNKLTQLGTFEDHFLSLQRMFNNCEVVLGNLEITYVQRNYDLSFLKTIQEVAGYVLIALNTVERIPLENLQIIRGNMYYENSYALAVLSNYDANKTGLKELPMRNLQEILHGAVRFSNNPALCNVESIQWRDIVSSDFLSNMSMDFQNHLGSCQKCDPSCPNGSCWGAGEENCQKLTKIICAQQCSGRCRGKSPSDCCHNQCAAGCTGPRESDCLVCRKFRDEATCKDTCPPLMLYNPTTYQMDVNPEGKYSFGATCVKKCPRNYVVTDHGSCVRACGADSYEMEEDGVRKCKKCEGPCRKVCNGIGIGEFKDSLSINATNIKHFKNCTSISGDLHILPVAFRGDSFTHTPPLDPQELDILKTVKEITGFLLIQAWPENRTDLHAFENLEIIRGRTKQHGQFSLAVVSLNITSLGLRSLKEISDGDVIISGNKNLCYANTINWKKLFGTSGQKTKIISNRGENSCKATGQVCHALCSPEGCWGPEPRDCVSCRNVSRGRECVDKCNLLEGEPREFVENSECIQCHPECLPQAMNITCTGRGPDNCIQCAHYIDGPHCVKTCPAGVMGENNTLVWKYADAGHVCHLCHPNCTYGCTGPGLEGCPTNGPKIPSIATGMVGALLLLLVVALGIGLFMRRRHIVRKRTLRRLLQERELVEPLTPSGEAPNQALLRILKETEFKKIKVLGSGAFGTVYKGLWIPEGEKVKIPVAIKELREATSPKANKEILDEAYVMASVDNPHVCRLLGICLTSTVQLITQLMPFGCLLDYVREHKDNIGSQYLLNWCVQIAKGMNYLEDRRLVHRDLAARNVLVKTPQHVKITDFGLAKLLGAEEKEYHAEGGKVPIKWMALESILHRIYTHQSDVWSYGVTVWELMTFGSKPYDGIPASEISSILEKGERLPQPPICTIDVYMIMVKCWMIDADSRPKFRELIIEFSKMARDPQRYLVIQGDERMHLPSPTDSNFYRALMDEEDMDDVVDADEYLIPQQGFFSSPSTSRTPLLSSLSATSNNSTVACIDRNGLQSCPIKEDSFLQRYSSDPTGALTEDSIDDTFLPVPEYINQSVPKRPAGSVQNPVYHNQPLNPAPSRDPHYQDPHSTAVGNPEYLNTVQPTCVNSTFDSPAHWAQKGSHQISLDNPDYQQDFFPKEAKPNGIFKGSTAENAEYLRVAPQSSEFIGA
# [25] = Drug excretion in iv dosed rat urine assessed as glucuronide metabolite; type: ADME, organism-based; details: in vivo
# [26] = Efflux ratio of permeability from basolateral to apical side over apical to basolateral side in MDCK cells; type: ADME, cell-based, Canis lupus familiaris; details: dog
# [27] = Drug excretion in iv dosed rat bile assessed as glucuronide metabolite; type: ADME, organism-based; details: in vivo
# [28] = molecular target: T3, Inhibitor of nuclear factor kappa-B kinase subunit epsilon (Homo sapiens) (UniProt Q14164); test: Inhibition of IKKepsilon (unknown origin) at 1000 nM
# T3 sequence (whole entry): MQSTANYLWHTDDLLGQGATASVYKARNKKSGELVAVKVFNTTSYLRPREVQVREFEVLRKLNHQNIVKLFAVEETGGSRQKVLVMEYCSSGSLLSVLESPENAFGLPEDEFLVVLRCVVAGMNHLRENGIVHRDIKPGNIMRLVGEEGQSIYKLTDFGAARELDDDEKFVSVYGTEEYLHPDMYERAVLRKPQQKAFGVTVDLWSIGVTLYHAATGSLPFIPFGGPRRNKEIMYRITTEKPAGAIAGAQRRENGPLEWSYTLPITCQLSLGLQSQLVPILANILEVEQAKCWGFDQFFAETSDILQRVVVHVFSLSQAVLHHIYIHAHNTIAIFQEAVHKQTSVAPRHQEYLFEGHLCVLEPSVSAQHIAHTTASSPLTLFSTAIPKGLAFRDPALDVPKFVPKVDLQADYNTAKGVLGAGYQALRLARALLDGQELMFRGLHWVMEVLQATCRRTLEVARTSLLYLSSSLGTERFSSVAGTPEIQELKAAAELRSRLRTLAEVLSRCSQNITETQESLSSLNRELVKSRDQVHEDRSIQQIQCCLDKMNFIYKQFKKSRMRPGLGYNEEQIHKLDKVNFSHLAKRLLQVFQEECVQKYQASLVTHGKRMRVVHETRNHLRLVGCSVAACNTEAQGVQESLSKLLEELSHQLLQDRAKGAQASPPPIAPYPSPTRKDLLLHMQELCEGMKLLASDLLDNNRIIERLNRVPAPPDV
# [29] = molecular target: Proto-oncogene tyrosine-protein kinase Src (Homo sapiens) (UniProt P12931); test: Inhibition of SRC (unknown origin) at 1000 nM
# [30] = molecular target: Receptor tyrosine-protein kinase erbB-4 (Homo sapiens) (UniProt Q15303); test: Inhibition of ERBB4 (unknown origin) at 1000 nM
# [31] = molecular target: Epidermal growth factor receptor (Homo sapiens, UniProt P00533, L858R); test: Inhibition of EGFR L858R mutant (unknown origin); type: protein assay
# Epidermal growth factor receptor (Homo sapiens, UniProt P00533, L858R), sequence (P00533 25-1210 L858R limits assumed): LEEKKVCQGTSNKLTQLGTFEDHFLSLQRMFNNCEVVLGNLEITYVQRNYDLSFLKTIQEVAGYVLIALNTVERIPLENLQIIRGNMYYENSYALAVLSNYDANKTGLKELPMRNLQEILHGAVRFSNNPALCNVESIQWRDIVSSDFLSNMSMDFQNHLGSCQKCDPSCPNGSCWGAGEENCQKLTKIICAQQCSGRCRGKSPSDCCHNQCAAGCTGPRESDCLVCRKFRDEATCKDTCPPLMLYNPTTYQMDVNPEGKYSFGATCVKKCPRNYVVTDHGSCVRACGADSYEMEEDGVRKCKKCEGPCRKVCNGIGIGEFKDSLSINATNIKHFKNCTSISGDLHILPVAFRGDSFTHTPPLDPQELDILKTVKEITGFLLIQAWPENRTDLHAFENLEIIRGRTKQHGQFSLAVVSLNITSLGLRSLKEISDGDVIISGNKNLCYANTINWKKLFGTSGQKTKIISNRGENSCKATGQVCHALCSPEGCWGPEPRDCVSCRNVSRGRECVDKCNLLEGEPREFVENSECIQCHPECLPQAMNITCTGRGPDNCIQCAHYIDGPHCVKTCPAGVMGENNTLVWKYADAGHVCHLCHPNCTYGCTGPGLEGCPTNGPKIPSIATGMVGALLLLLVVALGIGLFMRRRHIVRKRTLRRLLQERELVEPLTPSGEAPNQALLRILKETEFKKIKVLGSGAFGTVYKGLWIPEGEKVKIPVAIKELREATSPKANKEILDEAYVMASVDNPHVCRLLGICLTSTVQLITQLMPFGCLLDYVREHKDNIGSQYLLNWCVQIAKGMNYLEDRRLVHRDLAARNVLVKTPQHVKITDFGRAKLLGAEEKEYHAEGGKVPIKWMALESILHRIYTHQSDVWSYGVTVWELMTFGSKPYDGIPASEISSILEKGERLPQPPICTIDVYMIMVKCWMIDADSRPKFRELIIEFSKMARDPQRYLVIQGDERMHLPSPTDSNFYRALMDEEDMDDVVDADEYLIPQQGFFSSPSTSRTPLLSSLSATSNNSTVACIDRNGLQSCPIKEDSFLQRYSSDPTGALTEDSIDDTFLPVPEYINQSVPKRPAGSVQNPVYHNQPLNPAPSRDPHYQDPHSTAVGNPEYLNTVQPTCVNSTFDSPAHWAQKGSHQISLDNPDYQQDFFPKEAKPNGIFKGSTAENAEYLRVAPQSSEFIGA
# [32] = molecular target: T2, Epidermal growth factor receptor; test: Inhibition of EGFR T790M/deletion (746 to 750 residues) mutant (unknown origin); type: protein assay
# Target sequence in this assay (P00533 25-1210 limits assumed, stated change not applied): as the sequence (P00533 25-1210 limits assumed, stated change not applied) above
# [33] = Drug excretion in iv dosed rat urine assessed as oxidative metabolite; type: ADME, organism-based; details: in vivo
# [34] = molecular target: Ribosomal protein S6 kinase beta-1 (Homo sapiens) (UniProt P23443); test: Inhibition of p70S6K(unknown origin) at 1000 nM
# Hepatocyte [35] = test: Drug metabolism in rat hepatocytes assessed as glucuronidation; type: ADME, cell-based
# Hepatocyte [36] = test: Drug metabolism in human hepatocytes assessed as glucuronidation; type: ADME, cell-based
smiles,measurement,setting,value
CC1(C)OCc2c(Nc3n[nH]c4c(Cl)cccc34)nc(-c3cn[nH]c3C(F)F)nc21,inhibition,[1],85.7%
same,inhibition,[2],4.5%
same,bioavailability,[3],62%
same,inhibition,[4],6.9%
same,fAUC,Rattus norvegicus,0.09 µM·h
same,IC50,[5],370 nM
same,inhibition,[6],-7%
same,Drug excretion,[7],metabolite_detected
same,Papp A→B,[8],8.4 ×10⁻⁶ cm/s
same,Ki,[9],6.5 nM
same,inhibition,[10],90.8%
same,inhibition,[11],10.1%
same,inhibition,[12],15.3%
same,solubility kinetic,[13],3 µM
same,clearance,[14],36 mL/min/kg
same,inhibition,[15],-4.5%
same,inhibition,[16],38.4%
same,Ki,[17],9 nM
same,inhibition,[18],-4%
same,inhibition,[19],38.1%
same,inhibition,[20],91.8%
same,Vd,[21],3.3 L/kg
same,inhibition,[22],96.4%
same,AUC,[23],3.4 µM·h
same,Ki,[24],1.7 nM
same,Drug excretion,[25],metabolite_detected
same,efflux ratio,[26],0.7
same,Drug excretion,[27],metabolite_detected
same,inhibition,[28],1.9%
same,inhibition,[29],47.6%
same,inhibition,[30],97%
same,Ki,[31],3.4 nM
same,Ki,[32],2.5 nM
same,Drug excretion,[33],metabolite_detected
same,inhibition,[34],2.7%
CN(c1nc(-c2cn[nH]c2)nc2c1COC2(C)C)c1n[nH]c2ccccc12,Ki,[17],519 nM
CC1(C)OCc2c(Nc3n[nH]c4ccc(F)cc34)nc(-c3cn[nH]c3)nc21,Drug metabolism,Hepatocyte [35],metabolite_detected
same,clearance,[14],81 mL/min/kg
same,Ki,[17],8 nM
same,Vd,[21],6.8 L/kg
same,Drug metabolism,Hepatocyte [36],metabolite_detected
CC1(C)OCc2c(Nc3n[nH]c4c3CCCC4)nc(-c3cn[nH]c3)nc21,Ki,[17],> 2000 nM
CC1(C)OCc2c(Nc3n[nH]c4cc(F)ccc34)nc(-c3cn[nH]c3)nc21,Ki,[17],2 nM
Cc1cc(Nc2nc(-c3cn[nH]c3)nc3c2COC3(C)C)n[nH]1,Ki,[17],844 nM
CC1(C)OCc2c(Nc3nc4ccccc4s3)nc(-c3cn[nH]c3)nc21,Ki,[17],> 2000 nM
CC1(C)OCc2c(C(=O)c3n[nH]c4ccccc34)nc(-c3cn[nH]c3)nc21,Ki,[17],104 nM
Cn1nccc1-c1nc(Nc2n[nH]c3ccccc23)c2c(n1)C(C)(C)OC2,bioavailability,[3],117%
same,fAUC,Rattus norvegicus,0.23 µM·h
same,IC50,[5],3000 nM
same,Papp A→B,[8],12.9 ×10⁻⁶ cm/s
same,Ki,[9],1.1 nM
same,clearance,[14],38 mL/min/kg
same,Ki,[17],34.3 nM
same,Vd,[21],2.3 L/kg
same,AUC,[23],7.5 µM·h
same,Ki,[24],< 0.5 nM
same,efflux ratio,[26],0.9
same,Ki,[31],< 0.5 nM
same,Ki,[32],21.3 nM
CC1(C)OCc2c(Nc3c[nH]c4ccccc34)nc(-c3cn[nH]c3)nc21,Ki,[17],17 nM
CC1(C)OCc2c(Nc3n[nH]c4ccncc34)nc(-c3cn[nH]c3)nc21,Ki,[17],> 2000 nM
CC1(C)OCc2c(Nc3n[nH]c4c(Cl)c(F)ccc34)nc(-c3cn[nH]c3)nc21,Papp A→B,[8],7.3 ×10⁻⁶ cm/s
same,clearance,[14],60 mL/min/kg
same,Ki,[17],4 nM
same,Vd,[21],5.5 L/kg
same,efflux ratio,[26],1.1
CC1(C)OCc2c(Nc3n[nH]c4cc(C(F)(F)F)ccc34)nc(-c3cn[nH]c3)nc21,Papp A→B,[8],10.3 ×10⁻⁶ cm/s
same,clearance,[14],91 mL/min/kg
same,Ki,[17],> 2000 nM
same,Vd,[21],1.2 L/kg
same,efflux ratio,[26],1.5
CC1(C)OCc2c(Nc3n[nH]c4c(F)cc(F)cc34)nc(-c3cn[nH]c3)nc21,Ki,[17],10.4 nM
CC1(C)OCc2c(Nc3n[nH]c4cccc(F)c34)nc(-c3cn[nH]c3)nc21,Ki,[17],17 nM
CC1(C)OCc2c(Nc3n[nH]c4ccccc34)nc(-c3c[nH]nn3)nc21,Ki,[17],732 nM
CC1(C)OCc2c(Nc3nsc4ccccc34)nc(-c3cn[nH]c3)nc21,Ki,[17],747 nM
CC1(C)OCc2c(Nc3n[nH]c4c(F)cccc34)nc(-c3cn[nH]c3)nc21,Ki,[17],3 nM
Cn1nc(Nc2nc(-c3cn[nH]c3)nc3c2COC3(C)C)c2cccc(F)c21,clearance,[14],60 mL/min/kg
same,Ki,[17],57 nM
same,Vd,[21],1.5 L/kg
CC1(C)OCc2c(Nc3n[nH]c4c(C(F)(F)F)cccc34)nc(-c3cn[nH]c3)nc21,bioavailability,[3],5%
same,fAUC,Rattus norvegicus,0.03 µM·h
same,Papp A→B,[8],8.5 ×10⁻⁶ cm/s
same,solubility kinetic,[13],3 µM
same,Drug metabolism,Hepatocyte [35],metabolite_detected
same,clearance,[14],27 mL/min/kg
same,Ki,[17],134 nM
same,Vd,[21],2.4 L/kg
same,Drug metabolism,Hepatocyte [36],metabolite_detected
same,AUC,[23],0.36 µM·h
same,efflux ratio,[26],1.3
CC1(C)OCc2c(Oc3n[nH]c4ccccc34)nc(-c3cn[nH]c3)nc21,Ki,[17],85 nM
CC1(C)OCc2c(Nc3n[nH]c4cc(Cl)ccc34)nc(-c3cn[nH]c3)nc21,Ki,[17],22.4 nM
CC1(C)OCc2c(Nc3n[nH]c(Cl)c3Cl)nc(-c3cn[nH]c3)nc21,Ki,[17],389 nM
CC1(C)OCc2c(Nc3n[nH]c4c(Cl)cc(F)cc34)nc(-c3cn[nH]c3)nc21,Ki,[17],16 nM
CC1(C)OCc2c(Nc3n[nH]c4ccccc34)nc(-c3cscn3)nc21,Ki,[17],5.6 nM
CC1(C)OCc2c(Nc3n[nH]c4ccccc34)nc(-c3cc[nH]n3)nc21,Ki,[17],175 nM
